Measurements from patent publication US5135938A, “Leukotriene antagonists” (SmithKline Beecham Corporation, priority 1990, dated 1992).
Counter-ions that a name gives are not always drawn.

target: T1, LTD4 induced contraction of guinea pig tracheal spiral strips (Cavia porcellus, UniProt Q2NNR5); assay: Inhibition of leukotriene (LTD4) induced contraction of guinea pig tracheal tissues in vitro; type: cell-based; settings: LTD4 concentration-response on guinea pig tracheal strips, 30 minutes pretreatment with test compound; KB from EC30 shift; current average where tested more than once; read-out: In Vitro Log K8 (-log KB, leukotriene antagonist activity) (converted)
T1 construct: Guinea pig (adult male albino Hartley strain) tracheal spiral strips; from tissue; host or cells: guinea pig trachea (adult male albino Hartley strain), spiral strips
T1 sequence (Q2NNR5 1-340): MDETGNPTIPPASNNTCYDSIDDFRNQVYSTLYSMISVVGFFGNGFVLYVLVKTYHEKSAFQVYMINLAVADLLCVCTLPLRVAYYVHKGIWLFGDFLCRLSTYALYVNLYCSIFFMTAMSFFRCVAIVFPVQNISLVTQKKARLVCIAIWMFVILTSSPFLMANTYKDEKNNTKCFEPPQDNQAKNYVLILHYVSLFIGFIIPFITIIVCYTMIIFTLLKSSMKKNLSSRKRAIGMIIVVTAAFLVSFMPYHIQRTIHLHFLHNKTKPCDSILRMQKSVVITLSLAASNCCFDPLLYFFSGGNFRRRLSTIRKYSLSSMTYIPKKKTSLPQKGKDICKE
Protocol: The leukotriene antagonist activity of the compounds of this invention is measured by the ability of the compounds to inhibit the leukotriene induced contraction of guinea pig tracheal tissues in vitro. The following methodology was employed:
In vitro: Guinea pig (adult male albino Hartley strain) tracheal spiral strips of approximate dimensions 2 to 3 mm cross-sectional width an 3.5 cm length were bathed in modified Krebs buffer in jacketed 10 ml tissue bath and continuously aerated with 95% O2 /5% CO2. The tissues were connected via silk suture to force displacement transducers for recording isometric tension. The tissues were equilibrated for 1 hr., pretreated for 15 minutes with meclofenamic acid […] to remove intrinsic prostaglandin responses, and then pretreated for an additional 30 minutes with either the test compound or vehicle control. A cumulative concentration-response curve for LTD4 on triplicate tissues was generated by successive increases in the bath concentration of the LTD4. In order to minimize intertissue variability, the percentage of the maximum response obtained to a reference agonist, carbachol […].
Calculations: The averages of the triplicate LTD4 concentration-response curves both in the presence and absence of the test compound were plotted on log graph paper. The concentration of LTD4 needed to elicit 30% of the contraction elicited by carbachol was measured and defined as the EC30. The -log KB value for the test compound was determined by the following equations: [formula] 2. KB =concentration of test compound/(X-1)
The antagonist activity of representative compounds of this invention is tabulated below in Table I (other data appears in the preparative examples). The -log KB values were calculated from the above test protocol. Where compounds were tested more than once, the -log KB values given herein represent the current average data.

Structure (SMILES)	Kb [nM]
CCCCCCCCCCCCc1ccccc1C(Sc1nnnn1CCCC(=O)O)C(=O)O (stereo not drawn) [Example 3, 2-(2-Dodecylphenyl)-2-[[1-(3-carboxypropyl)-5-tetrazolyl]thio]acetic acid]	39.8
O=C(O)CCCn1nnnc1SC(CC(=O)O)c1ccccc1CCCCCCCCc1ccccc1 (stereo not drawn) [Example 8, 3-[2-(8-Phenyloctyl)phenyl]-3-[[1-(3-carboxypropyl)-5-tetrazolyl]thio]propanoic acid]	1000
O=C(O)Cn1nnnc1SC(c1ccccc1CCCCCCCCc1ccccc1)C(O)C(=O)O (stereo not drawn) [Example 14, 3-[2-(8-phenyloctyl)phenyl]-3-[(1-carboxymethyl-5-tetrazolyl)thio]-2-hydroxypropanoic acid]	100
O=C(O)CCCn1nnnc1SC(c1ccccc1CCCCCCCCc1ccccc1)C(O)C(=O)O (stereo not drawn) [Example 13, 3-[2-(8-phenyloctyl)phenyl]-3-[[1-(3-carboxypropyl)-5-tetrazolyl]thio]-2-hydroxypropanoic acid]	100
CCCCCCCCCCCCc1ccccc1C(Sc1nnnn1CS(=O)(=O)O)C(=O)O (stereo not drawn) [Example 4, 2-(2-Dodecylphenyl)-2-[(1-sulfomethyl-5-tetrazolyl)thio]acetic acid ammonium salt hydrate]	398
O=C(O)CC(Sc1nnnn1CC(=O)O)c1ccccc1CCCCCCCCc1ccccc1 (stereo not drawn) [Example 7, 3-[2-(8-Phenyloctyl)phenyl]-3-[(1-carboxymethyl-5-tetrazolyl)thio]propanoic acid]	501
CCCCCCCCCCCCc1ccccc1C(SCCc1nnn[nH]1)C(=O)O (stereo not drawn) [Example 12, 2-(2-dodecylphenyl)-2-[2-(tetrazol-5-yl)ethylthio]acetic acid]	316
CCCCCCCCCCCCc1ccccc1C(CC(=O)O)Sc1nnnn1CCCC(=O)O (stereo not drawn) [Example 6, 3-(2-dodecylphenyl)-3-[[1-(3-carboxypropyl)-5-tetrazolyl]thio]propanoicacid]	251
CCCCCCCCCCCCc1ccccc1C(Sc1nc(C)c(C(=O)O)s1)C(=O)O (stereo not drawn) [Example 15, 2-(2-Dodecylphenyl)-2-(5-carboxy-4-methyl-2-thiazolylthio)acetic acid]	200
